How the values were obtained:
HBsAg secretion = assay: Inhibition of HBsAg secretion (ELISA); assay type: cell-based, HBV; conditions: Hepatitis B virus, HepG2.2.15, 240 h, read-out: HbsAg IC50 (nM)
Description: (§1) The chromosomes of HepG2.2.15 cells (SELLS, PNAS, 1987 and SELLS, JV, 1988) integrate the complete HBV genome and stably express viral RNA and viral proteins. HepG2.2.15 cells are able to secrete mature HBV particles and HBsAg into the culture medium. Viral particle DNA and HBsAg secreted by HepG 2.2.15 cells can be quantified by qPCR and ELISA methods, and the effects of the compound on virus replication and HBsAg secretion are thus examined.
(§2) HepG 2.2.15 Cells (8,000 per well) were seeded into 96-well cell culture plates in duplicate and cultured for 3 days until the cells grew to fill in pores. Cells were treated with 4-fold serial diluted compound solution for 10 days, and the compound solution was exchanged once every other day, the final concentration of DMSO in all wells was 0.5% and DMSO was used as a drug-free control. On the eleventh day, the supernatant was collected for quantitative detection of HBsAg.
The level of HBsAg secreted by the cells after treatment with the compound was detected by ELISA. The method used a hepatitis B surface antigen diagnostic kit (Shanghai K ehua Biotechnology Co., Ltd. 510910113). 25 ≈L of the supernatant to be examined (diluted to 75 ≈L in PBS) was added to each well of the ELISA plate, and a kit-positive control and a negative control were set. The ELISA plates were blocked with mounting paper and incubated at 37 eC for 60 minutes. The ELISA plate was took out, and the mounting paper was removed, then 50 ≈L of enzyme conjugate was added into each well. After shaking for 10 seconds, the ELISA plates were blocked with mounting paper and incubated at 37 eC for 30 minutes. The ELISA plate was took out, and the mounting paper was removed, and the ELISA plate was repeated washing five times: liquid in the wells was discard each time; the wells was filled with washing solution, then stood for 60 seconds and spined dry; and liquid residue on blotting paper was patted dry. After the washing was completed, to all wells was immediately added a mixture of freshly prepared developer A and developer B: 100 ≈L per well. After shaking for 10 seconds on oscillator, the ELISA plates were blocked with mounting paper and incubated at 37 eC for 30 minutes. To all wells were added 50 ≈L of stop solution. Data were read at a wavelength of 450 nm on an Envision plate reader. Concentration-HBsAg OD450 value was treated with Graphpad Prism 5 software and the IC50 of inhibition of HBsAg secretion by compounds was calculated by a four-parameter nonlinear regression model.

HBV DNA replication = assay: Inhibition of HBV virus replication (HBV DNA in supernatant, qPCR); assay type: cell-based; conditions: Hepatitis B virus, 240 h; HepG2.2.15 cells, 10 days treatment, supernatant HBV DNA by qPCR
Description: as §1
as §2, with “HBV DNA.” for “HBsAg.”
qPCR method was used for detection of viral genomic DNA, HBV primers were as follows: HBV-For-202, […]; HBV-Rev-315, […].
Using the SY BR Premix Ex Taq II—Takara DRR081S kit, 1 ≈L of the cell culture supernatant was used as a template, a plasmid containing the HBV genome was used for plotting a standard curve, and virus copy number was calculated using the standard curve. Concentration-virus copy number was treated with Graphpad Prism 5 software and the IC50 of inhibition of virus replication by compounds was calculated by a four-parameter nonlinear regression model.

| SMILES | IC50 (HBsAg secretion) | IC50 (HBV DNA replication) |
| --- | --- | --- |
| COC(=O)c1cc2c(cc1N1CCCC1)CC(C(C)C)n1cc(C(=O)O)c(=O)cc1-2 (stereo not shown) [Example 34, 6-isopropyl-10-(methoxycarbonyl)-2-oxo-9-(pyrrolidin-1-yl)-6,7-dihydro-2H-pyrido[2,1-a]isoquinoline-3-carboxylic Acid] | 9.85 nM | 4.74 nM |
| CCOCc1cc2c(cc1OCCCOC)CC(C(C)C)n1cc(C(=O)O)c(=O)cc1-2 (stereo not shown) [Example 7, 10-(ethoxymethyl)-6-isopropyl-9-(3-methoxypropoxy)-2-oxo-6,7-dihydro-2H-pyrido[2,1-a]isoquinoline-3-carboxylic Acid] | 13.5 nM | 8.16 nM |
| COc1cc2c(cc1-c1ccco1)CC(C(C)C)n1cc(C(=O)O)c(=O)cc1-2 (stereo not shown) [Example 16, 9-(furan-2-yl)-6-isopropyl-10-methoxy-2-oxo-6,7-dihydro-2H-pyrido[2,1-a]isoquinoline-3-carboxylic Acid] | 3.2 nM | 1.99 nM |
| COc1cc2c(cc1-c1ccc(Cl)s1)CC(C(C)C)n1cc(C(=O)O)c(=O)cc1-2 (stereo not shown) [Example 79, 9-(5-chlorothiophen-2-yl)-6-isopropyl-10-methoxy-2-oxo-6,7-dihydro-2H-pyrido[2,1-a]isoquinoline-3-carboxylic Acid] | 2.95 nM | 2.01 nM |
| COc1cc2c(cc1-c1nccs1)CC(C(C)C)n1cc(C(=O)O)c(=O)cc1-2 (stereo not shown) [Example 75, 6-isopropyl-10-methoxy-2-oxo-9-(thiazol-2-yl)-6,7-dihydro-2H-pyrido[2,1-a]isoquinoline-3-carboxylic Acid] | 2.41 nM | 2.1 nM |
| COCCCOc1cc2c(cc1-c1cscn1)-c1cc(=O)c(C(=O)O)cn1C(C(C)C)C2 (stereo not shown) [Example 13, 6-isopropyl-9-(3-methoxypropoxy)-2-oxo-10-(thiazol-4-yl)-6,7-dihydro-2H-pyrido[2,1-a]isoquinoline-3-carboxylic Acid] | 1.48 nM | 0.64 nM |
| COCCCOc1cc2c(cc1C(C)=O)-c1cc(=O)c(C(=O)O)cn1C(C(C)C)C2 (stereo not shown) [Example 6, 10-acetyl-6-isopropyl-9-(3-methoxypropoxy)-2-oxo-6,7-dihydro-2H-pyrido[2,1-a]isoquinoline-3-carboxylic Acid] | 3.63 nM | 3.02 nM |
| COCCCOc1cc2c(cc1C(=O)CCC(F)(F)F)-c1cc(=O)c(C(=O)O)cn1C(C(C)C)C2 (stereo not shown) [Example 53, 6-isopropyl-9-(3-methoxypropoxy)-2-oxo-10-(4,4,4-trifluorobutanoyl)-6,7-dihydro-2H-pyrido[2,1-a]isoquinoline-3-carboxylic Acid] |  | 7.99 nM |
| COc1cc2c(cc1-c1ncc(Br)s1)CC(C(C)C)n1cc(C(=O)O)c(=O)cc1-2 (stereo not shown) [Example 80, 9-(5-bromothiazol-2-yl)-6-isopropyl-10-methoxy-2-oxo-6,7-dihydro-2H-pyrido[2,1-a]isoquioline-3-carboxlic Acid] | 2.16 nM | 2.57 nM |
| COCCCOc1cc2c(cc1C(=O)OC)-c1cc(=O)c(C(=O)O)cn1C(C(C)C)C2 (stereo not shown) [Example 1, 6-isopropyl-10-(methoxycarbonyl)-9-(3-methoxypropoxy)-2-oxo-6,7-dihydro-2H-pyrido[2,1-a]isoquinoline-3-carboxylic Acid] | 2.25 nM | 6.3 nM |
| CC(C)C1Cc2cc(OCc3ccccc3)c(-c3nccs3)cc2-c2cc(=O)c(C(=O)O)cn21 (stereo not shown) [Example 18, 9-(benzyloxy)-6-isopropyl-2-oxo-10-(thiazol-2-yl)-6,7-dihydro-2H-pyrido[2,1-a]isoquinoline-3-carboxylic Acid] | 5.53 nM | 8.09 nM |
| COC(=O)c1cc2c(cc1N1CC[C@H](OC(C)=O)C1)CC(C(C)C)n1cc(C(=O)O)c(=O)cc1-2 (stereo partly drawn) [Example 47, 9-((S)-3-acetoxypyrrolidin-1-yl)-6-isopropyl-10-(methoxycarbonyl)-2-oxo-6,7-dihydro-2H-pyrido[2,1-a]isoquinoline-3-carboxylic Acid] |  | 6.35 nM |
| CC(=O)c1cc2c(cc1N1CCCC1)CC(C(C)C)n1cc(C(=O)O)c(=O)cc1-2 (stereo not shown) [Example 30, 10-acetyl-6-isopropyl-2-oxo-9-(pyrrolidin-1-yl)-6,7-dihydro-2H-pyrido[2,1-a]isoquinoline-3-carboxylic Acid] | 7.83 nM | 7.68 nM |
| CC(=O)c1cc2c(cc1-c1ccco1)CC(C(C)C)n1cc(C(=O)O)c(=O)cc1-2 (stereo not shown) [Example 31, 10-acetyl-9-(furan-2-yl)-6-isopropyl-2-oxo-6,7-dihydro-2H-pyrido[2,1-a]isoquinoline-3-carboxylic Acid] | 8.2 nM | 6.26 nM |
| COCCCOc1cc2c(cc1-c1csc(N)n1)-c1cc(=O)c(C(=O)O)cn1C(C(C)C)C2 (stereo not shown) [Example 8, 10-(2-aminothiazol-4-yl)-6-isopropyl-9-(3-methoxypropoxy)-2-oxo-6,7-dihydro-2H-pyrido[2,1-a]isoquinoline-3-carboxylic Acid] | 6.28 nM | 4.46 nM |
| COCCCOc1cc2c(cc1-c1ccccn1)-c1cc(=O)c(C(=O)O)cn1C(C(C)C)C2 (stereo not shown) [Example 67, 6-isopropyl-9-(3-methoxypropoxy)-2-oxo-10-(pyridin-2-yl)-6,7-dihydro-2H-pyrido[2,1-a]isoquinoline-3-carboxylic Acid] | 7.77 nM | 4.36 nM |
| C#CCOC(=O)c1cc2c(cc1OCCCOC)CC(C(C)C)n1cc(C(=O)O)c(=O)cc1-2 (stereo not shown) [Example 36, 6-isopropyl-9-(3-methoxypropoxy)-2-oxo-10-((prop-2-yn-1-yloxy)carbonyl)-6,7-dihydro-2H-pyrido[2,1-a]isoquinoline-3-carboxylic Acid] | 4.22 nM | 2.55 nM |
| COC(=O)c1cc2c(cc1-c1ccco1)CC(C(C)C)n1cc(C(=O)O)c(=O)cc1-2 (stereo not shown) [Example 32, 9-(furan-2-yl)-6-isopropyl-10-(methoxycarbonyl)-2-oxo-6,7-dihydro-2H-pyrido[2,1-a]isoquinoline-3-carboxylic Acid] | 9.62 nM | 7.57 nM |
| COc1cc2c(cc1-c1cccs1)CC(C(C)C)n1cc(C(=O)O)c(=O)cc1-2 (stereo not shown) [Example 17, 6-isopropyl-10-methoxy-2-oxo-9-(thiophen-2-yl)-6,7-dihydro-2H-pyrido[2,1-a]isoquinoline-3-carboxylic Acid] | 2.14 nM | 3.6 nM |
| COC(=O)c1cc2c(cc1-c1ccc(Cl)o1)CC(C(C)C)n1cc(C(=O)O)c(=O)cc1-2 (stereo not shown) [Example 74, 9-(5-chlorofuran-2-yl)-6-isopropyl-10-(methoxycarbonyl)-2-oxo-6,7-dihydro-2H-pyrido[2,1-a]isoquinoline-3-carboxylic Acid] | 3.68 nM | 2.97 nM |
| CC(C)C1Cc2cc(OCCC3CC3)c(-c3nccs3)cc2-c2cc(=O)c(C(=O)O)cn21 (stereo not shown) [Example 22, 9-(2-cyclopropylethoxy)-6-isopropyl-2-oxo-10-(thiazol-2-yl)-6,7-dihydro-2H-pyrido[2,1-a]isoquinoline-3-carboxylic Acid] | 0.65 nM | 0.84 nM |
| CNC(=O)c1cc2c(cc1OCCCOC)CC(C(C)C)n1cc(C(=O)O)c(=O)cc1-2 (stereo not shown) [Example 5, 6-isopropyl-9-(3-methoxypropoxy)-10-(methylcarbamoyl)-2-oxo-6,7-dihydro-2H-pyrido[2,1-a]isoquinoline-3-carboxylic Acid] | 9.88 nM | 10.6 nM |
| CCCCCOc1cc2c(cc1-c1nccs1)-c1cc(=O)c(C(=O)O)cn1C(C(C)C)C2 (stereo not shown) [Example 20, 6-isopropyl-2-oxo-9-(pentyloxy)-10-(thiazol-2-yl)-6,7-dihydro-2H-pyrido[2,1-a]isoquinoline-3-carboxylic Acid] | 8.12 nM | 8.79 nM |
| COCCCOc1cc2c(cc1-c1cccs1)-c1cc(=O)c(C(=O)O)cn1C(C(C)C)C2 (stereo not shown) [Example 15, 6-isopropyl-9-(3-methoxypropoxy)-2-oxo-10-(thiophen-2-yl)-6,7-dihydro-2H-pyrido[2,1-a]isoquinoline-3-carboxylic Acid] | 0.77 nM | 0.39 nM |

From patent US10966970B2, “Fused tricyclic compounds and uses thereof in medicine” (SUNSHINE LAKE PHARMA CO., LTD., priority 2017, dated 2021)
